Measurements reported in PubChem BioAssay AID342 (DTP/NCI, 2004).
Values joined by “and” are separate entries in the source; they are usually repeats but may differ in a detail not shown here. Equal values may be shown once.

Tested on: Swiss mice, Sarcoma 180 sc, mean tumor weight T/C
Assay: NCI In Vivo Anticancer Drug Screen. Data for tumor model Sarcoma 180 (subcutaneous) in Swiss mice
Conditions: endpoint: mean tumor weight, higher = larger tumour
In short: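 Tumor-bearing mice, transplantable tumor; readout survival or tumor size; result = T/C, treated vs vehicle control.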

## O=C1CCCCC1C(=O)C(F)(F)F (stereo not given)
dose: 27.75 mg/kg/injection, schedule: Q#A X014 (ip), vehicle: methylcellulose (MC)
  T/C: 64 % of control
dose: 27.75 mg/kg/injection, schedule: Q#A X014 (ip), vehicle: saline
  T/C: 64 % of control
dose: 41.65 mg/kg/injection, schedule: Q#A X014 (ip), vehicle: methylcellulose (MC)
  T/C: 79 % of control
dose: 41.65 mg/kg/injection, schedule: Q#A X014 (ip), vehicle: saline
  T/C: 81 % of control
dose: 55.0 mg/kg/injection, schedule: Q01DX007 (ip), vehicle: saline
  T/C: 61 % of control
dose: 62.5 mg/kg/injection, schedule: Q#A X014 (ip), vehicle: methylcellulose (MC)
  T/C: 34 % of control
dose: 62.5 mg/kg/injection, schedule: Q#A X014 (ip), vehicle: saline
  T/C: 28 % of control
dose: 83.0 mg/kg/injection, schedule: Q01DX007 (ip), vehicle: saline
  T/C: 44 % of control
dose: 93.75 mg/kg/injection, schedule: Q#A X014 (ip), vehicle: methylcellulose (MC)
  T/C: 35 % of control and 52 % of control
dose: 93.75 mg/kg/injection, schedule: Q#A X014 (ip), vehicle: saline
  T/C: 37 % of control
dose: 110.0 mg/kg/injection, schedule: Q02DX004 (ip), vehicle: saline
  T/C: 40 % of control
dose: 125.0 mg/kg/injection, schedule: Q01DX007 (ip), vehicle: saline
  T/C: 62 % of control
dose: 165.0 mg/kg/injection, schedule: Q03DX003 (ip), vehicle: saline
  T/C: 63 % of control
dose: 166.0 mg/kg/injection, schedule: Q02DX004 (ip), vehicle: saline
  T/C: 97 % of control
dose: 187.0 mg/kg/injection, schedule: Q01DX007 (ip), vehicle: saline
  T/C: 47 % of control
dose: 250.0 mg/kg/injection, schedule: Q02DX004 (ip), vehicle: saline
  T/C: 82 % of control
dose: 352.0 mg/kg/injection, schedule: Q03DX003 (ip), vehicle: carboxymethylcellulose (CMC)
  T/C: 83 % of control
dose: 561.0 mg/kg/injection, schedule: Q03DX003 (ip), vehicle: saline
  T/C: 53 % of control

## C=CCOc1ccc2c(c1)CC[C@@H]1[C@@H]2CC[C@]2(C)[C@@H](O)[C@@H](O)C[C@@H]12
dose: 0.25 mg/kg/injection, schedule: Q#A X014 (sc), vehicle: steriod suspending solution
  T/C: 90 % of control
dose: 0.5 mg/kg/injection, schedule: Q01DX007 (sc), vehicle: steriod suspending solution
  T/C: 106 % of control
dose: 1.25 mg/kg/injection, schedule: Q01DX007 (sc), vehicle: steriod suspending solution
  T/C: 77 % of control
dose: 1.25 mg/kg/injection, schedule: Q#A X014 (sc), vehicle: steriod suspending solution
  T/C: 68 % of control
dose: 2.5 mg/kg/injection, schedule: Q01DX007 (sc), vehicle: steriod suspending solution
  T/C: 91 % of control
dose: 2.5 mg/kg/injection, schedule: Q#A X014 (ip), vehicle: methylcellulose (MC)
  T/C: 84 % of control
dose: 2.5 mg/kg/injection, schedule: Q#A X014 (sc), vehicle: steriod suspending solution
  T/C: 36 % of control
dose: 10.0 mg/kg/injection, schedule: Q#A X014 (sc), vehicle: steriod suspending solution
  T/C: 60 % of control

## CC1C/C=C2\CSC(NC(=O)/C3=C\N(C/C=C/C=C/C(O)CC(O)CC(=O)N3)C2=O)C(=O)O1 (stereo not given)
dose: 18.75 mg/kg/injection, schedule: Q01DX007 (ip), vehicle: carboxymethylcellulose (CMC)
  T/C: 111 % of control
dose: 37.5 mg/kg/injection, schedule: Q01DX007 (ip), vehicle: carboxymethylcellulose (CMC)
  T/C: 112 % of control
dose: 150.0 mg/kg/injection, schedule: Q01DX007 (ip), vehicle: carboxymethylcellulose (CMC)
  T/C: 114 % of control
dose: 187.0 mg/kg/injection, schedule: Q01DX007 (ip), vehicle: carboxymethylcellulose (CMC)
  T/C: 68 % of control
dose: 250.0 mg/kg/injection, schedule: Q01DX007 (ip), vehicle: carboxymethylcellulose (CMC)
  T/C: 119 % of control
dose: 375.0 mg/kg/injection, schedule: Q01DX007 (ip), vehicle: carboxymethylcellulose (CMC)
  T/C: 91 % of control
dose: 500.0 mg/kg/injection, schedule: Q01DX007 (ip), vehicle: carboxymethylcellulose (CMC)
  T/C: 73 % of control

## CN(Cc1cnc2nc(NCNC(=O)C3=C(O)[C@@]4(O)C(=O)C5=C(O)c6c(O)cccc6[C@@](C)(O)[C@H]5C[C@H]4[C@H](N(C)C)C3=O)nc(N)c2n1)c1ccc(C(=O)NC(CCC(=O)O)C(=O)O)cc1 (stereo not given in full)
dose: 1.5 mg/kg/injection, schedule: Q01DX007 (ip), vehicle: saline
  T/C: 76 % of control
dose: 3.0 mg/kg/injection, schedule: Q01DX007 (ip), vehicle: saline
  T/C: 52 % of control
dose: 6.0 mg/kg/injection, schedule: Q01DX007 (ip), vehicle: saline
  T/C: 16 % of control

## CN(C)c1nc(N(C)C)nc(N(C)C)n1
dose: 7.34 mg/kg/injection, schedule: Q#A X014 (ip), vehicle: carboxymethylcellulose (CMC)
  T/C: 86 % of control
dose: 14.67 mg/kg/injection, schedule: Q#A X014 (ip), vehicle: carboxymethylcellulose (CMC)
  T/C: 90 % of control
dose: 22.5 mg/kg/injection, schedule: Q01DX007 (ip), vehicle: carboxymethylcellulose (CMC)
  T/C: 117 % of control
dose: 23.45 mg/kg/injection, schedule: Q#A X014 (ip), vehicle: other
  T/C: 91 % of control
dose: 25.0 mg/kg/injection, schedule: Q01DX007 (ip), vehicle: methylcellulose (MC)
  T/C: 64 % of control
dose: 25.0 mg/kg/injection, schedule: Q01DX007 (oral), vehicle: carboxymethylcellulose (CMC)
  T/C: 58 % of control
dose: 25.0 mg/kg/injection, schedule: Q01DX007 (oral), vehicle: methylcellulose (MC)
  T/C: 102 % of control
dose: 29.35 mg/kg/injection, schedule: Q#A X014 (ip), vehicle: carboxymethylcellulose (CMC)
  T/C: 75 % of control
dose: 29.35 mg/kg/injection, schedule: Q#A X014 (ip), vehicle: other
  T/C: 80 % of control
dose: 31.25 mg/kg/injection, schedule: Q#A X014 (ip), vehicle: carboxymethylcellulose (CMC)
  T/C: 53 % of control
dose: 39.1 mg/kg/injection, schedule: Q#A X014 (ip), vehicle: other
  T/C: 83 % of control
dose: 45.0 mg/kg/injection, schedule: Q01DX007 (ip), vehicle: carboxymethylcellulose (CMC)
  T/C: 88 % of control
dose: 46.9 mg/kg/injection, schedule: Q01DX007 (ip), vehicle: other
  T/C: 49 % of control
dose: 50.0 mg/kg/injection, schedule: Q01DX007 (ip), vehicle: methylcellulose (MC)
  T/C: 61 % of control
dose: 50.0 mg/kg/injection, schedule: Q01DX007 (oral), vehicle: carboxymethylcellulose (CMC)
  T/C: 87 % of control
dose: 50.0 mg/kg/injection, schedule: Q01DX007 (oral), vehicle: methylcellulose (MC)
  T/C: 116 % of control
dose: 58.7 mg/kg/injection, schedule: Q01DX007 (ip), vehicle: other
  T/C: 51 % of control
dose: 58.7 mg/kg/injection, schedule: Q#A X014 (ip), vehicle: other
  T/C: 77 % of control
dose: 62.5 mg/kg/injection, schedule: Q#A X014 (ip), vehicle: carboxymethylcellulose (CMC)
  T/C: 26 % of control
dose: 78.2 mg/kg/injection, schedule: Q01DX007 (ip), vehicle: other
  T/C: 54 % of control
dose: 90.0 mg/kg/injection, schedule: Q01DX007 (ip), vehicle: carboxymethylcellulose (CMC)
  T/C: 77 % of control
dose: 100.0 mg/kg/injection, schedule: Q01DX007 (ip), vehicle: methylcellulose (MC)
  T/C: 75 % of control
dose: 100.0 mg/kg/injection, schedule: Q01DX007 (oral), vehicle: carboxymethylcellulose (CMC)
  T/C: 67 % of control
dose: 100.0 mg/kg/injection, schedule: Q01DX007 (oral), vehicle: methylcellulose (MC)
  T/C: 108 % of control
dose: 117.4 mg/kg/injection, schedule: Q01DX007 (ip), vehicle: other
  T/C: 40 % of control
dose: 200.0 mg/kg/injection, schedule: Q01DX007 (ip), vehicle: methylcellulose (MC)
  T/C: 94 % of control
dose: 200.0 mg/kg/injection, schedule: Q01DX007 (oral), vehicle: carboxymethylcellulose (CMC)
  T/C: 57 % of control
dose: 200.0 mg/kg/injection, schedule: Q01DX007 (oral), vehicle: methylcellulose (MC)
  T/C: 114 % of control

## Clc1ccc2c(c1)C(Br)c1cc(Cl)cc(Cl)c1-2 (stereo not given)
dose: 222.0 mg/kg/injection, schedule: Q01DX007 (ip), vehicle: other
  T/C: 66 % of control
dose: 222.0 mg/kg/injection, schedule: Q01DX007 (ip), vehicle: saline
  T/C: 67 % of control
dose: 333.0 mg/kg/injection, schedule: Q01DX007 (ip), vehicle: other
  T/C: 27 % of control
dose: 333.0 mg/kg/injection, schedule: Q01DX007 (ip), vehicle: saline
  T/C: 32 % of control
dose: 500.0 mg/kg/injection, schedule: Q01DX007 (ip), vehicle: other
  T/C: 30 % of control
dose: 750.0 mg/kg/injection, schedule: Q01DX007 (ip), vehicle: other
  T/C: 21 % of control

## CC[C@@H](O)C[C@H]1CCC[C@@]2(C[C@@H]3OC(=O)/C=C/[C@@](C)(O)[C@@H](O)[C@H](C)[C@@H](O)[C@H](OC4CCC(N(C)C)C(C)O4)[C@@H](O)[C@](C)(O)CCCCC/C=C/[C@@H]4CC(C)(C)O[C@@]4(O)C[C@H](O2)[C@H]3C)O1 (stereo not given in full)
dose: 0.15 mg/kg/injection, schedule: Q01DX007 (sc), vehicle: steriod suspending solution
  T/C: 95 % of control
dose: 0.23 mg/kg/injection, schedule: Q01DX007 (sc), vehicle: steriod suspending solution
  T/C: 113 % of control
dose: 0.34 mg/kg/injection, schedule: Q01DX007 (sc), vehicle: steriod suspending solution
  T/C: 118 % of control

## Cc1ccc(NC(C(=O)c2ccccc2)c2ccccc2)cc1 (stereo not given)
dose: 150.0 mg/kg/injection, schedule: Q01DX007 (ip), vehicle: saline
  T/C: 39 % of control
dose: 225.0 mg/kg/injection, schedule: Q01DX007 (ip), vehicle: saline
  T/C: 20 % of control
